Experimental data as given in US20220194914A1, “METHODS AND SYSTEMS FOR PRODUCTION OF FURFURAL” (SHELL OIL COMPANY, priority 2020, published 2022).
Read-outs that look alike come from different tables or passages of the source.

Experiments:
[1] = cited from earlier work; for Water solubility g/L (20° C.) / water solubility: 20° C.
[2] = octanol-water, cited from earlier work
[3] = Partitioning of components between the aqueous and non-aqueous phase of the biphasic solution (Example 4); assay type: physicochemical; details: aqueous pH 1 (H2SO4), calculated ionic strength 3.0 M (Na2SO4) / MN, 1:1 volume
Excerpt: The non-aqueous phase solution contains MN, PBA, and furfural. The biphasic solution was mixed to allow adequate contact amongst the various components, and the biphasic solution was subsequently allowed to settle into the two phases: aqueous and non-aqueous.

| Compound | LogP ([2]; Table 2 solvents) | Water solubility g/L (20° C.) ([1]; Table 1 boronic acids) | LogP ([2]; Table 1 boronic acids) | further results |
| --- | --- | --- | --- | --- |
| COc1ccccc1O [guaiacol] | 0.97 | – | – | Water solubility g/L ([1]; 25° C., Table 2 solvents): 18.7 (25° C.) g/L |
| CC(C)(C)c1ccc(B(O)O)cc1 [4-tert-Butylphenyl boronic acid] | – | Insoluble | 3.28 | – |
| c1ccc2occc2c1 [Benzofuran] | 2.67 | – | – | Water solubility g/L (20° C.) ([1]; Table 2 solvents): insoluble |
| Cc1ccccc1B(O)O [o-tolylboronic acid] | – | Slightly | 2.05 | – |
| CCCCB(O)O [butylboronic acid] | – | 25 g/L | 1.43 | – |
| Cc1cccc(B(O)O)c1 [m-tolylboronic acid] | – | 25 g/L | 2.05 | – |
| OB(O)C1CCCCC1 [Cyclohexyl boronic acid] | – | 25 g/L | 1.90 | – |
| CCc1ccc(B(O)O)cc1 [4-ethylphenyl boronic acid] | – | – | 2.58 | – |
| OB(O)c1ccccc1 [phenylboronic acid] | – | 10 g/L | 1.59 | molar concentration in Aqueous Phase [3]: 129 mM; molar concentration in Non-aqueous Phase [3]: 566 mM; water solubility [1]: 1 wt % |
| COc1ccccc1 [anisole] | – | – | – | Water solubility g/L (20° C.) ([1]; Table 2 solvents): 1.5 g/L |
| CCc1ccc(O)cc1 [4Et-phenol] | 2.47 | – | – | Water solubility g/L (20° C.) ([1]; Table 2 solvents): 6.1 g/L |
| OB(O)c1ccc2ccccc2c1 [2-naphthylboronic acid] | – | 0.3 g/L | 2.82 | water solubility [1]: 0.03 wt %; LogP [2]: 2.82 |
| O=Cc1ccco1 [Furfural] | – | – | – | mol % of the component in Non-aqueous Phase with respect to the biphasic solution [3]: (88 mol %); molar concentration in Aqueous Phase [3]: 46 mM; molar concentration in Non-aqueous Phase [3]: 352 mM; mol % of the component in Non-aqueous Phase with respect to the biphasic solution ([3]; listed as furfural): 88 mol % |
| Methylnaphtalene [MN] | – | – | – | molar concentration in Aqueous Phase [3]: 2 mM; molar concentration in Non-aqueous Phase [3]: 7.03M |
| CC(C)OC(C)C [Diisopropyl ether] | 2.03 | – | – | Water solubility g/L (20° C.) ([1]; Table 2 solvents): 1.7 g/L |
| OB(O)CCc1ccccc1 [Phenethyl boronic acid] | – | 1.8 g/L | 1.20 | – |
| Cc1cccc(C)c1O [2,6 xylenol] | 2.40 | – | – | – |
| CC(C)CB(O)O [(2-methylpropyl) boronic acid] | – | 33 g/L | 0.6 | – |
| CCCCCCCCB(O)O [octylboronic acid] | – | Insoluble | 3.56 | water solubility [1]: water-insoluble; LogP [2]: 3.56 |
| O=S(=O)([O-])[O-].[Na+].[Na+] [Salt (based on 2Na), Na2SO4] | – | – | – | mol % of the component in Aqueous Phase with respect to the biphasic solution [3]: (>99 mol %); mol % of the component in Non-aqueous Phase with respect to the biphasic solution [3]: (0.2 mol %); molar concentration in Aqueous Phase [3]: 1M; molar concentration in Non-aqueous Phase [3]: 2 mM; mol % of the component in Aqueous Phase with respect to the biphasic solution ([3]; listed as Na2SO4): over 99 mol % |
| CCCCCCCCO [1-octanol] | 3.10 | – | – | Water solubility g/L (20° C.) ([1]; Table 2 solvents): 0.3 g/L |
| CCCCCCC [heptane] | 4.47 | – | – | Water solubility g/L (20° C.) ([1]; Table 2 solvents): 0.003 g/L |
| OB(O)c1cccc2ccccc12 [naphthalene-1-boronic acid] | – | 0.3 g/L | – | – |
| Cc1cccc(O)c1 [Cresol (m)] | 1.94 | – | – | – |
| CCc1ccccc1 [Ethylbenzene] | 2.96 | – | – | Water solubility g/L (20° C.) ([1]; Table 2 solvents): 0.15 g/L |
| CCCCc1ccc(B(O)O)cc1 [4-butylphenyl boronic acid] | – | Insoluble | 3.64 | – |
